{"source": "patent US20220259536A1", "about": "“MICROCHANNEL CELL CULTURE DEVICE AND SYSTEM” (THE CHARLES STARK DRAPER LABORATORY, INC., priority 2021, published 2022)", "test_system": "Human renal proximal tubule cells", "assay": "optical label-free measurement of cell oxygen consumption in multi-well microfluidic tissue culture device", "type": "cell-based", "conditions": "human renal proximal tubule cells treated with Oligomycin; static conditions after turning off pumps; FIG. 15B, varying drug concentrations", "text": "An optical luminescence-based oxygen sensing system was integrated with an existing multi-well microfluidic tissue culture device, for label-free oxygen monitoring (FIG. 13). Sensor spots having a diameter of 0.75 mm were cut with a biopsy punch from a sheet of photosensitive film (PyroScience) and bonded with 184 Sylgard silicone adhesive to the center floor of each basal channel. The photosensitive sensor spot was located about 200 μm from the tissue layer on the surface of bottom channel. A FireStingO2 optical oxygen meter (PyroScience) with a 2 m fiber optic cable (external to channel) was used to monitor oxygen in each device. For oxygen measurements, the device was placed in an incubated confocal microscope (Zeiss Inc., Oberkochen, Germany) and the fiber optic was secured below the microscope stage. The stage was programmed to align the fiber optic with each sensor for oxygen monitoring in all 96 tissue modeling environments. A 2-point calibration of the FireStingO2 system was performed using devices filled with air saturated PBS and a 0% oxygen solution (30 g/L sodium sulfite in water). […] Tissue oxygen consumption was measured for the human renal proximal tubule cells by cycling the pumps carrying oxygen rich fluid on and off (FIG. 14). As shown in the graph of FIG. 14, under static conditions, cell oxygen consumption was measured immediately upon turning off fluid pumps.", "data": [{"smiles": "CC[C@H]1/C=C/C=C/C[C@@H](C)[C@H](O)[C@@](C)(O)C(=O)[C@@H](C)[C@H](O)[C@@H](C)C(=O)[C@@H](C)[C@H](O)[C@@H](C)/C=C/C(=O)O[C@@H]2[C@H](C)[C@H](CC1)O[C@]1(CC[C@H](C)[C@H](C[C@@H](C)O)O1)[C@H]2C", "note": "[Oligomycin]", "values": [{"measurement": "cell oxygen consumption rate", "result": "significant decrease"}]}]}
